Assay results taken from the supplement of paper PMC10307832.

Columns and labels:
Experiment in all cases: relative viability (nuclei count vs DMSO), 5 days (fraction); higher = more cells survive
Tipifarnib = compound: Cn1cncc1[C@@](N)(c1ccc(Cl)cc1)c1ccc2c(c1)c(-c1cccc(Cl)c1)cc(=O)n2C [Tipifarnib]
Procedure, shortened: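 Lung cancer cell lines were seeded into 1536-well plates, kept overnight at 37 °C and pinned with five library-drug doses (not always all listed) spaced by √10. After 5 days, nuclei were Hoechst-stained, imaged at 4× and counted with MetaXpress. Viability is treated-well nuclei over vehicle-well nuclei, taken as a median across plates. Plates needed control CV below 25% and at least one doubling.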

Tipifarnib + Bortezomib = compound: Cn1cncc1[C@@](N)(c1ccc(Cl)cc1)c1ccc2c(c1)c(-c1cccc(Cl)c1)cc(=O)n2C [Tipifarnib] + CC(C)C[C@H](NC(=O)[C@H](Cc1ccccc1)NC(=O)c1cnccn1)B(O)O [Bortezomib] (partner 0.002 µM)
Procedure, shortened: (§1)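 Values are medians from duplicate plates. Each reflects relative viability, defined as the nuclei count of treated wells over that of vehicle wells. Lung cancer cell lines in 1536-well plates were pin-tool dosed one day after seeding with one drug alone or with a fixed anchor-drug dose plus five library-drug doses (not always all listed) in √10 steps, then fixed, stained and imaged at 4× after 5 days.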

Tipifarnib + Navitoclax = compound: Cn1cncc1[C@@](N)(c1ccc(Cl)cc1)c1ccc2c(c1)c(-c1cccc(Cl)c1)cc(=O)n2C [Tipifarnib] + CC1(C)CCC(c2ccc(Cl)cc2)=C(CN2CCN(c3ccc(C(=O)NS(=O)(=O)c4ccc(N[C@H](CCN5CCOCC5)CSc5ccccc5)c(S(=O)(=O)C(F)(F)F)c4)cc3)CC2)C1 [Navitoclax] (partner 0.5 µM)
Procedure, shortened: as §1

Tipifarnib + Foretinib = compound: Cn1cncc1[C@@](N)(c1ccc(Cl)cc1)c1ccc2c(c1)c(-c1cccc(Cl)c1)cc(=O)n2C [Tipifarnib] + COc1cc2c(Oc3ccc(NC(=O)C4(C(=O)Nc5ccc(F)cc5)CC4)cc3F)ccnc2cc1OCCCN1CCOCC1 [Foretinib] (partner 0.25 µM)
Procedure, shortened: as §1

Tipifarnib + Lapatinib = compound: Cn1cncc1[C@@](N)(c1ccc(Cl)cc1)c1ccc2c(c1)c(-c1cccc(Cl)c1)cc(=O)n2C [Tipifarnib] + CS(=O)(=O)CCNCc1ccc(-c2ccc3ncnc(Nc4ccc(OCc5cccc(F)c5)c(Cl)c4)c3c2)o1 [Lapatinib] (partner 2 µM)
Procedure, shortened: as §1

Tipifarnib + Pictilisib = compound: Cn1cncc1[C@@](N)(c1ccc(Cl)cc1)c1ccc2c(c1)c(-c1cccc(Cl)c1)cc(=O)n2C [Tipifarnib] + CS(=O)(=O)N1CCN(Cc2cc3nc(-c4cccc5[nH]ncc45)nc(N4CCOCC4)c3s2)CC1 [Pictilisib] (partner 1 µM)
Procedure, shortened: as §1

Tipifarnib + Crizotinib = compound: Cn1cncc1[C@@](N)(c1ccc(Cl)cc1)c1ccc2c(c1)c(-c1cccc(Cl)c1)cc(=O)n2C [Tipifarnib] + C[C@@H](Oc1cc(-c2cnn(C3CCNCC3)c2)cnc1N)c1c(Cl)ccc(F)c1Cl [Crizotinib] (partner 1 µM)
Procedure, shortened: as §1

Tipifarnib + Linsitinib = compound: Cn1cncc1[C@@](N)(c1ccc(Cl)cc1)c1ccc2c(c1)c(-c1cccc(Cl)c1)cc(=O)n2C [Tipifarnib] + C[C@]1(O)C[C@@H](c2nc(-c3ccc4ccc(-c5ccccc5)nc4c3)c3c(N)nccn32)C1 [Linsitinib] (partner 1 µM)
Procedure, shortened: as §1

Tipifarnib + Alpelisib = compound: Cn1cncc1[C@@](N)(c1ccc(Cl)cc1)c1ccc2c(c1)c(-c1cccc(Cl)c1)cc(=O)n2C [Tipifarnib] + Cc1nc(NC(=O)N2CCC[C@H]2C(N)=O)sc1-c1ccnc(C(C)(C)C(F)(F)F)c1 [Alpelisib] (partner 2 µM)
Procedure, shortened: as §1

Tipifarnib + Vorinostat = compound: Cn1cncc1[C@@](N)(c1ccc(Cl)cc1)c1ccc2c(c1)c(-c1cccc(Cl)c1)cc(=O)n2C [Tipifarnib] + O=C(CCCCCCC(=O)Nc1ccccc1)NO [Vorinostat] (partner 1 µM)
Procedure, shortened: as §1

Tipifarnib + Olaparib = compound: Cn1cncc1[C@@](N)(c1ccc(Cl)cc1)c1ccc2c(c1)c(-c1cccc(Cl)c1)cc(=O)n2C [Tipifarnib] + O=C(c1cc(Cc2n[nH]c(=O)c3ccccc23)ccc1F)N1CCN(C(=O)C2CC2)CC1 [Olaparib] (partner 8 µM)
Procedure, shortened: as §1

IA-LM
relative viability (Tipifarnib; 0.01 µM): 0.426
relative viability (Tipifarnib; 0.03162 µM): 0.529
relative viability (Tipifarnib; 0.1 µM): 0.376
relative viability (Tipifarnib; 0.3162 µM): 0.185
relative viability (Tipifarnib; 1 µM): 0.184
relative viability (Tipifarnib + Bortezomib; first compound 0.01 µM): 0.354
relative viability (Tipifarnib + Bortezomib; first compound 0.03162 µM): 0.407
relative viability (Tipifarnib + Bortezomib; first compound 0.1 µM): 0.28
relative viability (Tipifarnib + Bortezomib; first compound 0.3162 µM): 0.292
relative viability (Tipifarnib + Bortezomib; first compound 1 µM): 0.265
relative viability (Tipifarnib + Navitoclax; first compound 0.01 µM): 0.388
relative viability (Tipifarnib + Navitoclax; first compound 0.03162 µM): 0.378
relative viability (Tipifarnib + Navitoclax; first compound 0.1 µM): 0.296
relative viability (Tipifarnib + Navitoclax; first compound 0.3162 µM): 0.251
relative viability (Tipifarnib + Navitoclax; first compound 1 µM): 0.164
relative viability (Tipifarnib + Foretinib; first compound 0.01 µM): 0.905
relative viability (Tipifarnib + Foretinib; first compound 0.03162 µM): 0.55
relative viability (Tipifarnib + Foretinib; first compound 0.1 µM): 0.47
relative viability (Tipifarnib + Foretinib; first compound 0.3162 µM): 0.299
relative viability (Tipifarnib + Foretinib; first compound 1 µM): 0.33
relative viability (Tipifarnib + Lapatinib; first compound 0.01 µM): 0.295
relative viability (Tipifarnib + Lapatinib; first compound 0.03162 µM): 0.192
relative viability (Tipifarnib + Lapatinib; first compound 0.1 µM): 0.215
relative viability (Tipifarnib + Lapatinib; first compound 0.3162 µM): 0.144
relative viability (Tipifarnib + Lapatinib; first compound 1 µM): 0.156
relative viability (Tipifarnib + Pictilisib; first compound 0.01 µM): 0.133
relative viability (Tipifarnib + Pictilisib; first compound 0.03162 µM): 0.121
relative viability (Tipifarnib + Pictilisib; first compound 0.1 µM): 0.136
relative viability (Tipifarnib + Pictilisib; first compound 0.3162 µM): 0.114
relative viability (Tipifarnib + Pictilisib; first compound 1 µM): 0.114
relative viability (Tipifarnib + Crizotinib; first compound 0.01 µM): 0.533
relative viability (Tipifarnib + Crizotinib; first compound 0.03162 µM): 0.548
relative viability (Tipifarnib + Crizotinib; first compound 0.1 µM): 0.291
relative viability (Tipifarnib + Crizotinib; first compound 0.3162 µM): 0.272
relative viability (Tipifarnib + Crizotinib; first compound 1 µM): 0.263
relative viability (Tipifarnib + Linsitinib; first compound 0.01 µM): 0.329
relative viability (Tipifarnib + Linsitinib; first compound 0.03162 µM): 0.285
relative viability (Tipifarnib + Linsitinib; first compound 0.1 µM): 0.332
relative viability (Tipifarnib + Linsitinib; first compound 0.3162 µM): 0.288
relative viability (Tipifarnib + Linsitinib; first compound 1 µM): 0.189
relative viability (Tipifarnib + Alpelisib; first compound 0.01 µM): 0.362
relative viability (Tipifarnib + Alpelisib; first compound 0.03162 µM): 0.289
relative viability (Tipifarnib + Alpelisib; first compound 0.1 µM): 0.309
relative viability (Tipifarnib + Alpelisib; first compound 0.3162 µM): 0.213
relative viability (Tipifarnib + Alpelisib; first compound 1 µM): 0.214
relative viability (Tipifarnib + Vorinostat; first compound 0.03162 µM): 0.539
relative viability (Tipifarnib + Vorinostat; first compound 0.1 µM): 0.277
relative viability (Tipifarnib + Vorinostat; first compound 0.3162 µM): 0.238
relative viability (Tipifarnib + Vorinostat; first compound 1 µM): 0.249
relative viability (Tipifarnib + Olaparib; first compound 0.01 µM): 0.494
relative viability (Tipifarnib + Olaparib; first compound 0.03162 µM): 0.504
relative viability (Tipifarnib + Olaparib; first compound 0.1 µM): 0.485
relative viability (Tipifarnib + Olaparib; first compound 0.3162 µM): 0.256
relative viability (Tipifarnib + Olaparib; first compound 1 µM): 0.404
